Consider eight compounds from US20120015977A1, “QUINOLINONE DERIVATIVES USEFUL FOR THE TREATMENT OF CNS DISORDERS” (NEUROSEARCH A/S, priority 2009, published 2012).

The test system of one data set is Psychomotor seizures induced via corneal stimulation (6 Hz). Briefly: 6 Hz electroshock seizure model (anticonvulsant properties). Format: in vivo. The settings on record: Mus musculus, po, 32 mA, 3 s corneal stimulation, p.o., pretreatment time 60 mins, vehicle 5% cremaphor, female NMRI mice, read-out: ED50 (dose that would give a 50% protection from seizures). The text has this:
The animal models being used for the discovery of novel antiepileptic drugs are numerous. Among these, a low frequency (6 Hz) electroshock seizure model has recently come into the limelight as a potential model of pharmacoresistant epilepsy (see Epilepsy: a comprehensive textbook, pag. 1477, by Jerome Engel, Timothy A. Pedley, Jean Aicardi, Marc A Dichter, Solomon Moshé—2007—Medical), and it is therefore an animal model of primary interest in antiepileptic drug discovery. The compounds of the invention have shown remarkable activity to protect against 6 Hz seizures.
The evaluation of the anticonvulsant properties was carried out in female NMRI mice (20-25 g, Taconic, Denmark). The mice were housed in groups (8 per cage according to weight) with food and water available ad libitum The environment was temperature (20±2° C.) and humidity (55±15%) controlled, and consisted of a 12:12 h light-dark cycle (lights on 06:00 h). The experiments were performed according to the Danish Committee for Experiments on Animals. […]
For screening purposes, the test compound was tested at 1 dose at 1 time-point. In the case of protection of 3 or more out of 8 mice, the compound were further evaluated in dose response (N=8/group). […]
With `NC(=O)Cn1c(=O)ccc2cc(Br)ccc21` [Compound 1, 2-(6-Bromo-2-oxo-1-quinolyl)acetamide], the median effective dose (ED50) was 16 mg/kg.

Tested on in the next data set: not given
Assay: not given
Conditions: not given
`CCC(C(N)=O)n1c(=O)ccc2cccc(Br)c21` (stereo not drawn) [Compound 8, 2-(8-bromo-2-oxo-1-quinolyl)butanamide] yielded a melting point of 124.2 to 125.5 °C.

In the case of `CCC(C(N)=O)n1c(=O)ccc2cc(Cl)ccc21` (stereo not drawn) [Compound 7, 2-(6-chloro-2-oxo-1-quinolyl)butanamide], the melting point was in the range of 127.5 to 128.8 °C.

`NC(=O)Cn1c(=O)ccc2cc(Br)ccc21` [Compound 1, 2-(6-Bromo-2-oxo-1-quinolyl)acetamide] came in with a melting point of 256.6 to 257.5 °C.

In turn, `NC(=O)Cn1c(=O)ccc2cccc(Br)c21` [Compound 3, 2-(8-bromo-2-oxo-1-quinolyl)acetamide] showed a melting point of 158.5 to 160 °C.

Take `NC(=O)Cn1c(=O)ccc2cccc(Cl)c21` [Compound 5, 2-(8-chloro-2-oxo-1-quinolyl)acetamide]: the melting point was in the range of 166.5 to 167.6 °C.

`CCC(C(N)=O)n1c(=O)ccc2cc(Br)ccc21` (stereo not drawn) [Compound 2, 2-(6-bromo-2-oxo-1-quinolyl)butanamide]: the melting point was 138.5 to 140 °C.

`NC(=O)Cn1c(=O)ccc2cc(Cl)ccc21` [Compound 4, 2-(6-chloro-2-oxo-1-quinolyl)acetamide] showed a melting point of 159.4 to 160.9 °C.

Turning to `CCC(C(N)=O)n1c(=O)ccc2cccc(Cl)c21` (stereo not drawn) [Compound 6, 2-(8-chloro-2-oxo-1-quinolyl)butanamide], the melting point was in the range of 127 to 128 °C.

As usually defined, the ED50 is the midpoint of the dose-response relation. One may read the melting point as the temperature, or range, at which the solid turns liquid.
